# Reference: ChEMBL document CHEMBL1158057, “Hydroxylated gedunin derivatives from Cedrela sinensis” (J Nat Prod, 2006)
# Tested on: P388
# Experiment: Cytotoxicity against mouse P388 cells
# Type: functional, cell-based
row,Compound,IC50
1,CC(=O)O[C@@H]1C[C@@]2(C)[C@H](c3ccoc3)OC(=O)[C@H]3O[C@]32[C@@]2(C)[C@H]1[C@@]1(C)C=CC(=O)C(C)(C)[C@@H]1C[C@H]2OC(C)=O,63 µg/mL
2,CC1(C)C(=O)C=C[C@]2(C)[C@H]3[C@@H](O)C[C@@]4(C)[C@H](c5ccoc5)OC(=O)[C@H]5O[C@]54[C@]3(C)[C@H](O)C[C@@H]12,7.8 µg/mL
3,CC(=O)O[C@@H]1C[C@H]2C(C)(C)C(=O)C=C[C@]2(C)[C@H]2CC[C@@]3(C)[C@H](c4ccoc4)OC(=O)[C@H]4O[C@]43[C@@]21C [GEDUNIN],3.3 µg/mL
4,CC(=O)O[C@H]1C[C@@]2(C)[C@H](c3ccoc3)OC(=O)[C@H]3O[C@]32[C@@]2(C)[C@H]1[C@@]1(C)C=CC(=O)C(C)(C)[C@@H]1C[C@H]2OC(C)=O,3.8 µg/mL
5,CC(=O)O[C@@H]1C[C@H]2C(C)(C)C(=O)C=C[C@]2(C)[C@H]2C(=O)C[C@@]3(C)[C@H](c4ccoc4)OC(=O)[C@H]4O[C@]43[C@@]21C,3 µg/mL
6,CC1(C)C(=O)C=C[C@]2(C)[C@H]3CC[C@@]4(C)[C@H](c5ccoc5)OC(=O)[C@H]5O[C@]54[C@]3(C)[C@H](O)C[C@@H]12 [DEACETYLGEDUNIN],4.5 µg/mL
7,CC1(C)C(=O)C=C[C@]2(C)[C@H]3[C@H](O)C[C@@]4(C)[C@H](c5ccoc5)OC(=O)[C@H]5O[C@]54[C@]3(C)[C@H](O)C[C@@H]12,> 100 µg/mL
8,CC(=O)O[C@@H]1C[C@H]2C(C)(C)C(=O)C=C[C@]2(C)[C@H]2[C@@H](O)C[C@@]3(C)[C@H](c4ccoc4)OC(=O)[C@H]4O[C@]43[C@@]21C,5.4 µg/mL
9,CC(=O)O[C@@H]1C[C@H]2C(C)(C)C(=O)C=C[C@]2(C)[C@H]2[C@H](O)C[C@@]3(C)[C@H](c4ccoc4)OC(=O)[C@H]4O[C@]43[C@@]21C,71 µg/mL
